Assay results published in US9895338B1, “Cobalt-polypyridyl complex for treatment of cancer, a pharmaceutical composition and a kit comprising it” (Macau University of Science and Technology, priority 2016, dated 2018).

Tests used:
[1] = tested on: HeLa cells (cervical cancer); assay: MTT cytotoxicity assay, HeLa; format: cell-based; conditions: 72 h
Method: (§1) All prepared cobalt-polypyridyl complexes were dissolved in DMSO at a final concentration of 50 mmol/L and stored at −20° C. before use. Cytotoxicity was assessed by using the 3-(4,5-dimethylthiazol-2-yl)-2,5-diphenyltetrazolium bromide (MTT) (5.0 mg/ml) assay as previously described (Wong, V. K. et al., Cell Death Dis, 2013, 4, e720). Briefly, 4×10^3 cells per well were seeded in 96-well plates before drug treatments. After overnight culture, the cells were then exposed to different concentrations of selected compounds (0.039-100 μmol/L) for 72 h. Cells without drug treatment were used as control. Subsequently, MTT (10 μL) solution was added to each well and incubated at 37° C. for 4 h followed by the addition of 100 μL solubilization buffer (10% SDS in 0.01 mol/L HCl) and overnight incubation. A570 nm was then determined in each well on the next day. The percentage of cell viability was calculated using the following formula: Cell viability (%)=Atreated/Acontrol×100. Data were obtained from three independent experiments. Cells include HeLa cells (cervical cancer), MCF-7 (breast cancer), H1299, H1975, A549 and LLC-1 (lung cancer), HepG2 and Hep3B (liver cancer) and LO2 (normal human hepatocytes).

MCF-7 (breast cancer) = assay: MTT cytotoxicity assay, MCF-7; format: cell-based; conditions: MCF-7, MTT, 72 h
Method: as §1

H1299 (lung cancer) = assay: MTT cytotoxicity assay, H1299; format: cell-based, human; conditions: 72 h
Method: as §1

H1975 (lung cancer) = assay: MTT cytotoxicity assay, H1975; format: cell-based; conditions: 72 h
Method: as §1

A549 (lung cancer) = assay: MTT cytotoxicity assay, A549; format: cell-based; conditions: 72 h
Method: as §1

LLC-1 (lung cancer) = assay: MTT cytotoxicity assay, LLC-1; format: cell-based; conditions: LLC-1, MTT, 72 h
Method: as §1

HepG2 (liver cancer) = assay: MTT cytotoxicity assay, HepG2; format: cell-based; conditions: 72 h
Method: as §1

Hep 3B (liver cancer) = assay: MTT cytotoxicity assay, Hep3B; format: cell-based; conditions: 72 h
Method: as §1

[2] = tested on: LO2 (normal human hepatocytes); assay: MTT cytotoxicity assay, LO2; format: cell-based; conditions: 72 h
Method: as §1

[3] = tested on: Taxol-sensitive MCF-7 cancer cells; assay: MTT cytotoxicity, taxol-sensitive MCF-7; format: cell-based; conditions: MCF-7, MTT, 72 h
Method: as §1, with “experiments.” for “experiments. Cells include HeLa cells (cervical cancer), MCF-7 (breast cancer), H1299, H1975, A549 and LLC-1 (lung cancer), HepG2 and Hep3B (liver cancer) and LO2 (normal human hepatocytes).”

[4] = tested on: Taxol-resistant MCF-7 cancer cells; assay: MTT cytotoxicity, taxol-resistant MCF-7; format: cell-based; conditions: for IC50: MCF-7, MTT, 72 h; for Resistant Factor: MCF-7, IC50 taxol-resistant over IC50 taxol-sensitive
Method: as §1, with “experiments.” for “experiments. Cells include HeLa cells (cervical cancer), MCF-7 (breast cancer), H1299, H1975, A549 and LLC-1 (lung cancer), HepG2 and Hep3B (liver cancer) and LO2 (normal human hepatocytes).”
(§2) All cells were obtained from the American Type Culture Collection (Rockville, Md., USA) unless otherwise specified. Immortalized wild-type and Atg7-deficient mouse embryonic fibroblasts (MEFs) were provided by Professor Masaaki Komatsu (Juntendo University, School of Medicine, Japan). Taxol-resistant types of A549, MCF-7, HCT-8 cancer cells, cisplatin-resistant SGC7901 cancer cells were purchased from KeyGEN BioTECH, China.

[5] = tested on: Taxol-sensitive HCT8 cancer cells; assay: MTT cytotoxicity, taxol-sensitive HCT8; format: cell-based; conditions: 72 h
Method: as §1, with “experiments.” for “experiments. Cells include HeLa cells (cervical cancer), MCF-7 (breast cancer), H1299, H1975, A549 and LLC-1 (lung cancer), HepG2 and Hep3B (liver cancer) and LO2 (normal human hepatocytes).”

[6] = tested on: Taxol-resistant HCT8 cancer cells; assay: MTT cytotoxicity, taxol-resistant HCT8; format: cell-based; conditions: for IC50: HCT8, MTT, 72 h; for Resistant Factor: HCT8, IC50 taxol-resistant over IC50 taxol-sensitive
Method: as §1, with “experiments.” for “experiments. Cells include HeLa cells (cervical cancer), MCF-7 (breast cancer), H1299, H1975, A549 and LLC-1 (lung cancer), HepG2 and Hep3B (liver cancer) and LO2 (normal human hepatocytes).”
as §2

[7] = tested on: Taxol-sensitive A549 cancer cells; assay: MTT cytotoxicity, taxol-sensitive A549; format: cell-based; conditions: 72 h
Method: as §1, with “experiments.” for “experiments. Cells include HeLa cells (cervical cancer), MCF-7 (breast cancer), H1299, H1975, A549 and LLC-1 (lung cancer), HepG2 and Hep3B (liver cancer) and LO2 (normal human hepatocytes).”

[8] = tested on: Taxol-resistant A549 cancer cells; assay: MTT cytotoxicity, taxol-resistant A549; format: cell-based; conditions: for IC50: A549, MTT, 72 h; for Resistant Factor: A549, IC50 taxol-resistant over IC50 taxol-sensitive
Method: as §1, with “experiments.” for “experiments. Cells include HeLa cells (cervical cancer), MCF-7 (breast cancer), H1299, H1975, A549 and LLC-1 (lung cancer), HepG2 and Hep3B (liver cancer) and LO2 (normal human hepatocytes).”
as §2

[9] = tested on: cisplatin-sensitive A2780 ovarian cancer cells; assay: MTT cytotoxicity, cisplatin-sensitive A2780; format: cell-based; conditions: 72 h
Method: as §1, with “experiments.” for “experiments. Cells include HeLa cells (cervical cancer), MCF-7 (breast cancer), H1299, H1975, A549 and LLC-1 (lung cancer), HepG2 and Hep3B (liver cancer) and LO2 (normal human hepatocytes).”
(§3) Cisplatin-sensitive or -resistant A2780, OV2008 and C13 cancer cells were provided by Prof. Benjamin Tsang (Department of Obstetrics and Gynecology and Department of Cellular and Molecular Medicine, University of Ottawa, Canada). HCT116 p53^+/+ and p53^−/− isogenic human colon cancer cells were provided by Professor Bert Vogelstein (Ludwig Center at Johns Hopkins, Howard Hughes Medical Institute, USA). All media were supplemented with 10% fetal bovine serum and the antibiotics penicillin (50 U/ml) and streptomycin (50 μg/ml; Invitrogen, Paisley, Scotland, UK). All cell cultures were incubated at 37° C. in a 5% humidified CO2 incubator.

[10] = tested on: cisplatin-resistant A2780 ovarian cancer cells; assay: MTT cytotoxicity, cisplatin-resistant A2780; format: cell-based; conditions: for IC50: A2780, MTT, 72 h; for Resistant Factor: A2780, cisplatin-resistant over cisplatin-sensitive
Method: as §1, with “experiments.” for “experiments. Cells include HeLa cells (cervical cancer), MCF-7 (breast cancer), H1299, H1975, A549 and LLC-1 (lung cancer), HepG2 and Hep3B (liver cancer) and LO2 (normal human hepatocytes).”
as §3

[11] = tested on: cisplatin-sensitive SGC-7901 gastric cancer cells; assay: MTT cytotoxicity, cisplatin-sensitive SGC-7901; format: cell-based; conditions: SGC-7901, MTT, 72 h
Method: as §1, with “experiments.” for “experiments. Cells include HeLa cells (cervical cancer), MCF-7 (breast cancer), H1299, H1975, A549 and LLC-1 (lung cancer), HepG2 and Hep3B (liver cancer) and LO2 (normal human hepatocytes).”

[12] = tested on: cisplatin-resistant SGC-7901 gastric cancer cells; assay: MTT cytotoxicity, cisplatin-resistant SGC-7901; format: cell-based; conditions: for IC50: SGC-7901, MTT, 72 h; for Resistant Factor: SGC-7901, cisplatin-resistant over cisplatin-sensitive
Method: as §1, with “experiments.” for “experiments. Cells include HeLa cells (cervical cancer), MCF-7 (breast cancer), H1299, H1975, A549 and LLC-1 (lung cancer), HepG2 and Hep3B (liver cancer) and LO2 (normal human hepatocytes).”
as §2

[13] = tested on: OV2008 cervical cancer cells; assay: MTT cytotoxicity, OV2008 (cisplatin-sensitive); format: cell-based; conditions: 72 h
Method: as §1, with “experiments.” for “experiments. Cells include HeLa cells (cervical cancer), MCF-7 (breast cancer), H1299, H1975, A549 and LLC-1 (lung cancer), HepG2 and Hep3B (liver cancer) and LO2 (normal human hepatocytes).”
as §3

[14] = tested on: OV2008/C13 cervical cancer cells; assay: MTT cytotoxicity, OV2008/C13 (cisplatin-resistant); format: cell-based; conditions: for IC50: OV2008/C13, MTT, 72 h; for Resistant Factor: OV2008/C13 over OV2008
Method: as §1, with “experiments.” for “experiments. Cells include HeLa cells (cervical cancer), MCF-7 (breast cancer), H1299, H1975, A549 and LLC-1 (lung cancer), HepG2 and Hep3B (liver cancer) and LO2 (normal human hepatocytes).”
as §3

[15] = tested on: HCT116 p53^+/+ colon cancer cells; assay: MTT cytotoxicity, HCT116 p53+/+; format: cell-based, human; conditions: 72 h
Method: as §1, with “experiments.” for “experiments. Cells include HeLa cells (cervical cancer), MCF-7 (breast cancer), H1299, H1975, A549 and LLC-1 (lung cancer), HepG2 and Hep3B (liver cancer) and LO2 (normal human hepatocytes).”
as §3

[16] = tested on: HCT116 p53^−/− colon cancer cells; assay: MTT cytotoxicity, HCT116 p53-/-; format: cell-based, human; conditions: for Resistant Factor: HCT116 p53^−/− over HCT116 p53^+/+; for IC50: MTT, 72 h
Method: as §1, with “experiments.” for “experiments. Cells include HeLa cells (cervical cancer), MCF-7 (breast cancer), H1299, H1975, A549 and LLC-1 (lung cancer), HepG2 and Hep3B (liver cancer) and LO2 (normal human hepatocytes).”
as §3

| Compound | IC50 [1] [µM] | IC50 (MCF-7 (breast cancer)) [µM] | IC50 (H1299 (lung cancer)) [µM] | IC50 (H1975 (lung cancer)) [µM] | IC50 (A549 (lung cancer)) [µM] | IC50 (LLC-1 (lung cancer)) [µM] | IC50 (HepG2 (liver cancer)) [µM] | IC50 (Hep 3B (liver cancer)) [µM] | IC50 [2] [µM] | IC50 [3] [µM] | IC50 [4] [µM] | Resistant Factor [4] | IC50 [5] [µM] | IC50 [6] [µM] | Resistant Factor [6] | IC50 [7] [µM] | IC50 [8] [µM] | Resistant Factor [8] | IC50 [9] [µM] | IC50 [10] [µM] | other results |
| --- | --- | --- | --- | --- | --- | --- | --- | --- | --- | --- | --- | --- | --- | --- | --- | --- | --- | --- | --- | --- | --- |
| F[P-](F)(F)(F)(F)F.F[P-](F)(F)(F)(F)F.[Co+2].c1ccc(-c2ccccn2)nc1.c1ccc(-c2ccccn2)nc1.c1ccc(-c2ccccn2)nc1 [complex (V), [Co^II(N^N)3](PF6)2] | 24.2 | 15.8 | 9.4 | 17 | 26.3 | 17.2 | 13.3 | 6.92 | 33.6 | 13.4 | 16.8 | 1.25 | 11.4 | 7.78 | 0.68 | 29.9 | 7.85 | 0.26 | 28.8 | 31.6 | Resistant Factor [10]: 1.10; IC50 [11]: 29.9 µM; IC50 [12]: 29.9 µM; Resistant Factor [12]: 1.00; IC50 [13]: 18.9 µM; IC50 [14]: 14.9 µM; Resistant Factor [14]: 0.79; IC50 [15]: 34.3 µM; Resistant Factor [16]: 0.85; IC50 [16]: 29.1 µM |
| F[P-](F)(F)(F)(F)F.F[P-](F)(F)(F)(F)F.F[P-](F)(F)(F)(F)F.[Co+3].c1ccc(-c2ccccn2)nc1.c1ccc(-c2ccccn2)nc1.c1ccc(-c2ccccn2)nc1 [complex (VI), [Co^III(N^N)3](PF6)3] | 35.9 | 10.1 | 14.9 | 21 | 37.2 | 29.2 | 22.7 | 13.8 | 43.7 | 8.02 | 5.01 | 0.62 | 18.5 | 10.2 | 0.55 | 51.7 | 11.1 | 0.21 | 55 | 54.1 | Resistant Factor [10]: 0.98; IC50 [11]: 41.1 µM; IC50 [12]: 41.7 µM; Resistant Factor [12]: 1.01; IC50 [13]: 42.5 µM; IC50 [14]: 37.4 µM; Resistant Factor [14]: 0.88; IC50 [15]: 45.1 µM; Resistant Factor [16]: 1.00; IC50 [16]: 45 µM |
| COc1ccnc(-c2cc(OC)ccn2)c1.COc1ccnc(-c2cc(OC)ccn2)c1.COc1ccnc(-c2cc(OC)ccn2)c1.F[P-](F)(F)(F)(F)F.F[P-](F)(F)(F)(F)F.F[P-](F)(F)(F)(F)F.[Co+3] [complex (VII), [Co^III(4,4′-(OMe)2-Bpy)3](PF6)3] | 12.8 | 10.8 | 8.71 | 9.31 | 18.6 | 8.71 | 15.4 | 5.33 | 20.6 | 9.45 | 6.28 | 0.66 | 4.3 | 1.04 | 0.24 | 15 | 2.85 | 0.19 | 24 | 27 | Resistant Factor [10]: 1.13; IC50 [11]: 21.6 µM; IC50 [12]: 20.7 µM; Resistant Factor [12]: 0.96; IC50 [13]: 14 µM; IC50 [14]: 20.3 µM; Resistant Factor [14]: 1.45; IC50 [15]: 77.8 µM; Resistant Factor [16]: 0.53; IC50 [16]: 41.3 µM |
